From ChEMBL document CHEMBL5042472, “Design, Synthesis, and Biological Evaluation of a Novel Photocaged PI3K Inhibitor toward Precise Cancer Treatment” (J Med Chem, 2021)

Assays:
[1] = Stability in rat liver microsomes assessed as half life at 1 uM in presence of NADPH by LC-MS/MS analysis; assay type: ADME, Microsome
[2] = Stability in rat plasma assessed as half life at 1 uM measured upto 120 min by LC-MS/MS analysis; assay type: ADME, cell-free
HGC-27 = experiment: Antiproliferative activity against human HGC-27 cells assessed as reduction in cell viability incubated in dark for 96 hrs by MTT assay; assay type: functional, cell-based; conditions: HGC-27, 96 h
AGS = experiment: Antiproliferative activity against human AGS cells assessed as reduction in cell viability incubated in dark for 96 hrs by MTT assay; assay type: functional, cell-based
[3] = Retention time of the compound by HPLC analysis; assay type: physicochemical
MG-63 = experiment: Antiproliferative activity against human MG-63 cells assessed as reduction in cell viability incubated in dark for 96 hrs by MTT assay; assay type: functional, cell-based; conditions: MG-63, 96 h
[4] = Apparent permeability across apical to basolateral side in human Caco-2 cells at 10 uM incubated for 2 hrs by LC-MS/MS analysis; assay type: ADME, cell-based
HCT-116 = experiment: Antiproliferative activity against human HCT-116 cells assessed as reduction in cell viability incubated in dark for 96 hrs by MTT assay; assay type: functional, cell-based; conditions: HCT-116, 96 h
MGC-803 = experiment: Antiproliferative activity against human MGC-803 cells assessed as reduction in cell viability incubated in dark for 96 hrs by MTT assay; assay type: functional, cell-based; conditions: MGC-803, 96 h
BGC-823 = experiment: Antiproliferative activity against human BGC-823 cells assessed as reduction in cell viability incubated in dark for 96 hrs by MTT assay; assay type: functional, cell-based; conditions: BGC-823, 96 h
[5] = Stability in dog liver microsomes assessed as half life at 1 uM in presence of NADPH measured upto 120 min by LC-MS/MS analysis; assay type: ADME, Canis lupus familiaris, Microsome
[6] = Stability in dog plasma assessed as half life at 1 uM measured upto 120 min by LC-MS/MS analysis; assay type: ADME, cell-free, Canis lupus familiaris
[7] = Apparent permeability across basolateral to apical side in human Caco-2 cells at 10 uM incubated for 2 hrs by LC-MS/MS analysis; assay type: ADME, cell-based
[8] = Plasma protein binding in dog at 1 uM by LC-MS/MS analysis; assay type: ADME, cell-free, Canis lupus familiaris; conditions: read-out: PPB (converted)
[9] = Plasma protein binding in rat at 1 uM by LC-MS/MS analysis; assay type: ADME, cell-free; conditions: read-out: PPB (converted)

`COc1ncc(-c2cc(OC3CCOCC3)c3ncnc(C)c3c2)cc1NS(=O)(=O)c1ccc(F)cc1F` gave a half-life at 1 µM [1] of 1.73 h, a half-life at 1 µM [2] greater than 2 h and an IC50 (HGC-27) of 0.76 nM. It also gave an IC50 (AGS) of 6.3 nM, a Retention_time [3] of 5.2 min and an IC50 (MG-63) of 5.7 nM. For the same molecule, the Papp A→B at 2 h, 10 µM [4] was 21.2 ×10⁻⁶ cm/s, the IC50 (HCT-116) was 23.4 nM and the IC50 (MGC-803) was 14.8 nM. It also gave an IC50 (BGC-823) of 18.6 nM, a half-life at 1 µM [5] greater than 2 h and a half-life at 1 µM [6] greater than 2 h. It also gave a Papp B→A at 2 h, 10 µM [7] of 26.5 ×10⁻⁶ cm/s, a fraction unbound at 1 µM [8] of 0.017 and a fraction unbound at 1 µM [9] of 0.017.
